Assay results: PubChem BioAssay AID200 (DTP/NCI, 2004)
Values joined by “and” are separate entries in the source; they are usually repeats but may differ in a detail not shown here. Equal entries are not always repeated. Toxic doses and inconclusive results are not listed.

Tested on: B6C3F1 mice, B16 melanoma ip, median survival T/C
Experiment: NCI In Vivo Anticancer Drug Screen. Data for tumor model B16 Melanoma (intraperitoneal) in B6C3F1 mice
Conditions: endpoint: median survival time, schedule: Q01DX009 (ip), higher = longer survival
In short: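 Readout: survival or tumor size in treated mice relative to vehicle controls (T/C). Model uses transplantable tumors grown in mice.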

[1] = dose: 100.0 mg/kg/injection, vehicle: saline with Tween-80
[2] = dose: 200.0 mg/kg/injection, vehicle: saline with Tween-80
[3] = dose: 400.0 mg/kg/injection, vehicle: saline with Tween-80
[4] = dose: 12.5 mg/kg/injection, vehicle: Klucel (hydroxypropylcellulose) (HPC)
[5] = dose: 12.5 mg/kg/injection, vehicle: saline with Tween-80
[6] = dose: 25.0 mg/kg/injection, vehicle: saline with Tween-80
[7] = dose: 50.0 mg/kg/injection, vehicle: saline with Tween-80
[8] = dose: 25.0 mg/kg/injection, vehicle: Klucel (hydroxypropylcellulose) (HPC)
[9] = dose: 50.0 mg/kg/injection, vehicle: Klucel (hydroxypropylcellulose) (HPC)
[10] = dose: 100.0 mg/kg/injection, vehicle: Klucel (hydroxypropylcellulose) (HPC)
[11] = dose: 200.0 mg/kg/injection, vehicle: Klucel (hydroxypropylcellulose) (HPC)
[12] = dose: 6.25 mg/kg/injection, vehicle: saline with Tween-80

## O=C(O)C(Cc1ccc(O)cc1)NS(=O)(=O)Cc1ccccc1 (stereo not given)
[1]
  T/C: 106 % of control
[2]
  T/C: 101 % of control
[3]
  T/C: 100 % of control

## C=C1C(=O)OCC1C(=O)O (stereo not given)
dose: 4.0 mg/kg/injection, vehicle: saline
  T/C: 102 % of control and 103 % of control
dose: 8.0 mg/kg/injection, vehicle: saline
  T/C: 102 % of control
dose: 16.0 mg/kg/injection, vehicle: saline
  T/C: 88 % of control and 93 % of control
dose: 32.0 mg/kg/injection, vehicle: saline
  T/C: 93 % of control

## [F][Sn]([F])([c]1ccccc1)[c]1ccccc1
dose: 1.56 mg/kg/injection, vehicle: Klucel (hydroxypropylcellulose) (HPC)
  T/C: 98 % of control
dose: 3.12 mg/kg/injection, vehicle: Klucel (hydroxypropylcellulose) (HPC)
  T/C: 87 % of control
dose: 6.25 mg/kg/injection, vehicle: Klucel (hydroxypropylcellulose) (HPC)
  T/C: 104 % of control
[4]
  T/C: 103 % of control

## O=[N+]([O-])c1ccc(N2CCOCC2)c2c1no[n+]2[O-]
[5]
  T/C: 99 % of control
[6]
  T/C: 101 % of control
[7]
  T/C: 98 % of control
[1]
  T/C: 104 % of control

## C=CCCC(=O)CCCC(=O)O[C@@H]1[C@@H]2[C@H](CC1(C)C)[C@H](O)[C@@]13O[C@@H]1[C@H](O)[C@@]1(CO1)[C@@]23C
dose: 3.12 micrograms/kg/injection, vehicle: saline
  T/C: 97 % of control
dose: 6.25 micrograms/kg/injection, vehicle: saline
  T/C: 91 % of control
dose: 12.5 micrograms/kg/injection, vehicle: saline
  T/C: 103 % of control
dose: 25.0 micrograms/kg/injection, vehicle: Klucel (hydroxypropylcellulose) (HPC)
  T/C: 98 % of control
dose: 25.0 micrograms/kg/injection, vehicle: saline
  T/C: 93 % of control
dose: 50.0 micrograms/kg/injection, vehicle: Klucel (hydroxypropylcellulose) (HPC)
  T/C: 91 % of control
dose: 50.0 micrograms/kg/injection, vehicle: saline
  T/C: 97 % of control
dose: 100.0 micrograms/kg/injection, vehicle: saline
  T/C: 98 % of control
dose: 200.0 micrograms/kg/injection, vehicle: Klucel (hydroxypropylcellulose) (HPC)
  T/C: 98 % of control
dose: 400.0 micrograms/kg/injection, vehicle: Klucel (hydroxypropylcellulose) (HPC)
  T/C: 96 % of control

## CCCCCC(=O)O[C@]1(C(C)=O)CC[C@H]2[C@@H]3CCC4=CC(=O)CC[C@]4(C)[C@H]3CC[C@@]21C
[4]
  T/C: 97 % of control and 101 % of control
[8]
  T/C: 100 % of control and 104 % of control
[9]
  T/C: 96 % of control and 98 % of control
[10]
  T/C: 99 % of control and 100 % of control
[11]
  T/C: 97 % of control and 100 % of control
dose: 400.0 mg/kg/injection, vehicle: Klucel (hydroxypropylcellulose) (HPC)
  T/C: 91 % of control and 97 % of control

## CCCCCCCCCCC(OC(C)=O)C1CCC(C2CCC(C(O)CCCCCCCCCCCCC3C=C(C)OC3=O)O2)O1 (stereo not given)
dose: 0.25 mg/kg/injection, vehicle: water
  T/C: 97 % of control
dose: 0.5 mg/kg/injection, vehicle: water
  T/C: 95 % of control
dose: 1.0 mg/kg/injection, vehicle: water
  T/C: 93 % of control
dose: 2.0 mg/kg/injection, vehicle: water
  T/C: 100 % of control
dose: 4.0 mg/kg/injection, vehicle: water
  T/C: 100 % of control

## c1cc[c]([Sn]([c]2ccccc2)([c]2ccccc2)[n]2cccc2)cc1
dose: 0.79 mg/kg/injection, vehicle: saline with Tween-80
  T/C: 113 % of control
dose: 1.56 mg/kg/injection, vehicle: saline with Tween-80
  T/C: 98 % of control
dose: 3.12 mg/kg/injection, vehicle: saline with Tween-80
  T/C: 93 % of control
[12]
  T/C: 113 % of control

## O=C(CNC(=O)OCc1ccccc1)NCC(=O)NC(Cc1c[nH]c2ccccc12)C(=O)O (stereo not given)
dose: 50.0 mg/kg/injection, vehicle: suspension in saline
  T/C: 97 % of control
dose: 100.0 mg/kg/injection, vehicle: suspension in saline
  T/C: 109 % of control and 117 % of control and 88 % of control
dose: 200.0 mg/kg/injection, vehicle: suspension in saline
  T/C: 91 % of control and 99 % of control
dose: 400.0 mg/kg/injection, vehicle: suspension in saline
  T/C: 88 % of control and 92 % of control and 107 % of control

## Cn1c2c(c3ccccc3c1=O)C(=O)c1ccccc1-2
dose: 3.13 mg/kg/injection, vehicle: saline with Tween-80
  T/C: 114 % of control
[12]
  T/C: 105 % of control
[5]
  T/C: 98 % of control and 101 % of control
[6]
  T/C: 104 % of control
[7]
  T/C: 96 % of control
[1]
  T/C: 102 % of control
[2]
  T/C: 94 % of control
[3]
  T/C: 88 % of control

## CCCC(=O)c1ccco1
[5]
  T/C: 98 % of control
[6]
  T/C: 109 % of control
[7]
  T/C: 100 % of control

## C=C(C(=O)O)C(N)C(=O)O (stereo not given)
dose: 25.0 mg/kg/injection, vehicle: saline
  T/C: 97 % of control
dose: 50.0 mg/kg/injection, vehicle: saline
  T/C: 106 % of control
dose: 100.0 mg/kg/injection, vehicle: saline
  T/C: 106 % of control
dose: 200.0 mg/kg/injection, vehicle: saline
  T/C: 90 % of control

## CC1=CC(=O)C(O)C2(C)C1CC1OC(=O)C(OC(=O)CC(C)(C)O)C3C(C)C(O)C4(O)OCC13C42 (stereo not given)
dose: 0.25 mg/kg/injection, vehicle: saline + alcohol
  T/C: 108 % of control
dose: 0.5 mg/kg/injection, vehicle: saline + alcohol
  T/C: 116 % of control
dose: 1.0 mg/kg/injection, vehicle: saline + alcohol
  T/C: 110 % of control
dose: 2.0 mg/kg/injection, vehicle: saline + alcohol
  T/C: 116 % of control
dose: 4.0 mg/kg/injection, vehicle: saline + alcohol
  T/C: 120 % of control

## CC(C)CC(NC(=O)CF)C(=O)O (stereo not given)
dose: 0.31 mg/kg/injection, vehicle: saline
  T/C: 95 % of control
dose: 0.63 mg/kg/injection, vehicle: saline
  T/C: 93 % of control
dose: 1.25 mg/kg/injection, vehicle: saline
  T/C: 90 % of control
dose: 2.5 mg/kg/injection, vehicle: saline
  T/C: 89 % of control
dose: 5.0 mg/kg/injection, vehicle: saline
  T/C: 96 % of control
dose: 10.0 mg/kg/injection, vehicle: saline
  T/C: 100 % of control

## NCC1CCC(C(=O)O)CC1 (stereo not given)
[5]
  T/C: 102 % of control
[6]
  T/C: 101 % of control
[7]
  T/C: 101 % of control
[1]
  T/C: 101 % of control
[2]
  T/C: 94 % of control

## Cc1cc(C)c(-c2cc(O)c(C)cc2O)c(C)c1
[4]
  T/C: 99 % of control
[8]
  T/C: 101 % of control
[9]
  T/C: 103 % of control
[10]
  T/C: 99 % of control
[11]
  T/C: 100 % of control

## C=C1C(=O)OC2/C=C(\C)CC(O)/C=C(/CO)CC(OC(=O)/C(C)=C/C)C12 (stereo not given)
dose: 7.5 mg/kg/injection, vehicle: saline + alcohol
  T/C: 115 % of control
dose: 7.5 mg/kg/injection, vehicle: saline with Tween-80
  T/C: 102 % of control
dose: 15.0 mg/kg/injection, vehicle: saline + alcohol
  T/C: 123 % of control
dose: 15.0 mg/kg/injection, vehicle: saline with Tween-80
  T/C: 103 % of control
dose: 15.0 mg/kg/injection, vehicle: saline
  T/C: 98 % of control
dose: 30.0 mg/kg/injection, vehicle: saline with Tween-80
  T/C: 97 % of control
dose: 30.0 mg/kg/injection, vehicle: saline
  T/C: 116 % of control
dose: 60.0 mg/kg/injection, vehicle: saline + alcohol
  T/C: 155 % of control
dose: 60.0 mg/kg/injection, vehicle: saline with Tween-80
  T/C: 98 % of control
dose: 60.0 mg/kg/injection, vehicle: saline
  T/C: 120 % of control
